Where two headings read alike, the source gives them in different places.
Tests used:
Jurkat [1] = test: PI staining for cell cycle distribution, Jurkat; type: cell-based, human; set-up: key: 0: no effect; 1: weak effect; 2: strong effect; conditions: Jurkat 3 μM, 24 h
Protocol: (§1) Cell lines are cultured in RPMI-1640 tissue culture medium containing either 5% or 10% fetal calf serum, 0.05 mM 2-mercaptoethanol, 2 mM glutamine and penicillin/streptomycin 50 μg/ml (complete medium) (Sigma, Buchs, Switzerland). General growth conditions are 37° C. and 7.5% CO2.
(§2) The following human cell lines (either EGFP transfected or not) are being used: HeLa (ATCC: CCL-2), KB (ATCC: CCL-17), MCF7 (ATCC: HTB-22), SK-BR-3 (ATCC: HTB-30), SK-Mel 1 (ATCC: HTB-67), SK-Mel 28 (ATCC: HTB-72), PC-3 (ATCC: CRL-1435), SW 480 (ATCC: CCL-228), NCl-H460 (ATCC: HTB-177), NCl-H1792 (ATCC: CRL-5895), HT1080 (ATCC: CCL-21), Jurkat (ATCC: TIB-152), Ramos (ATCC: CRL-1596), Raji (ATCC: CCL-86), H9 (ATCC: HTB-176), Hut78 (ATCC: TIB-161), K562 (ATCC: CCL 243), HL-60 (ATCC: CCL 240), U-87MG (ATCC: HTB-14), HepG2 (ATCC: HB-8065), U-2 OS (ATCC: HTB-96), Saos-2 (ATCC: HTB-85), U937 (ATCC: CRL 1593), Hs 578T (ATCC: HTB 126), HBL-100 (ATCC: HTB 124), Molt-4 (ATCC: CRL 1582).
(§3) 1-2*10^5 cells are seeded into 24 well tissue culture plates and incubated for 24 h prior to compound addition. Compounds are added for 24 h in a final concentration of 3 μM or 10 μM. Adherent cells are harvested by trypsinization. The cell suspensions are fixed by adding 2 parts ice cold ethanol 100% while vortexing. Then the samples are stored for >2 h at −20° C. Subsequently the cells are washed with PBS once and resuspended in 250 μl PBS containing 50 μg/ml PI (Calbiochem # 537059), then the samples are incubated at 37° C. for 30 minutes and subsequently analyzed on a FACSCalibur™ monitoring linear PI fluorescence activity on FL2. The readout allows the detection of a possible direct or indirect influence of the tested compounds on the cell cycle. The following events can occur: a) Generation of a subG1 peak indicative for DNA fragmentation, b) increase of the cell population arrested in G2M phase. Both events are scored by 1 for weak and 2 for strong occurrence. 0 indicates no occurrence at all.

MRC5 = test: MTS proliferation assay, MRC5; type: cell-based; conditions: MRC5, 72 h incubation, read-out: MTS proliferation assay IC 50 MRC5
Method in brief: (§4)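 RPMI-1640 + 5% or 10% FCS; seeded 24 h pre-dose; cpd final 10/3/1/0.3 μM, max 5% DMSO in added volume; 72 h, 37° C, 7.5% CO2; MTS 3 h; A492.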

HT1080 = test: MTS proliferation assay, HT1080; type: cell-based, human; conditions: HT1080, 72 h incubation, read-out: MTS proliferation assay IC 50 HT1080
Method in brief: (§5)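 Seed cells (1.5*10^3-10^4/well) 24 h ahead; add compound, final 10/3/1/0.3 μM; incubate 72 h, 37 °C, 7.5% CO2; MTS 3 h; read A492.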

Jurkat [2] = test: MTS proliferation assay, Jurkat; type: cell-based, human; conditions: 72 h incubation, read-out: MTS proliferation assay IC 50 Jurkat
Method in brief: as §5

HeLa [3] = test: PI staining for cell cycle distribution, HeLa; type: cell-based, human; set-up: key: 0: no effect; 1: weak effect; 2: strong effect; conditions: HeLa 10 μM, 24 h
Protocol: as §1, §2, §3

[4] = system: adherent cells or suspension cells; test: Hoechst 33342 nuclear staining (fraction of apoptotic nuclei); type: cell-based; set-up: key: 0 relating to no activity; 1 relating to weak activity comprising less than 70% of the cells; score 2 relating to strong activity comprising more than 70% of the cells
HeLa [5] = test: MTS proliferation assay, HeLa; type: cell-based, human; conditions: 72 h incubation, read-out: MTS proliferation assay IC 50 HeLa
Method in brief: as §5

Jily = test: MTS proliferation assay, Jily; type: cell-based; conditions: 72 h incubation, read-out: MTS proliferation assay IC 50 Jily
Method in brief: as §4

[6] = cell population arrested in G2M phase
[7] = subG1 peak indicative for DNA fragmentation

SMILES	Hoechst 33342 nuclear staining score ([4]; H460, conc 0.01 μm)	Hoechst 33342 nuclear staining score ([4]; H460, conc 0.1 μm)	Hoechst 33342 nuclear staining score ([4]; H460, conc 1 μm)	Hoechst 33342 nuclear staining score ([4]; HeLa, conc 0.01 μm)	Hoechst 33342 nuclear staining score ([4]; HeLa, conc 0.1 μm)	Hoechst 33342 nuclear staining score ([4]; HeLa, conc 1 μm)	Hoechst 33342 nuclear staining score ([4]; Jily, conc 0.01 μm)	Hoechst 33342 nuclear staining score ([4]; Jily, conc 0.1 μm)	Hoechst 33342 nuclear staining score ([4]; Jily, conc 1 μm)	Hoechst 33342 nuclear staining score ([4]; Jurkat, conc 0.01 μm)	Hoechst 33342 nuclear staining score ([4]; Jurkat, conc 0.1 μm)	Hoechst 33342 nuclear staining score ([4]; Jurkat, conc 1 μm)	Hoechst 33342 nuclear staining score ([4]; MRC5, conc 0.01 μm)	Hoechst 33342 nuclear staining score ([4]; MRC5, conc 0.1 μm)	Hoechst 33342 nuclear staining score ([4]; MRC5, conc 1 μm)	Hoechst 33342 nuclear staining score ([4]; PBLs, conc 0.01 μm)	Hoechst 33342 nuclear staining score ([4]; PBLs, conc 0.1 μm)	Hoechst 33342 nuclear staining score ([4]; PBLs, conc 1 μm)	IC50 (Jily) [nM]	further results
N#CCCNc1nonc1-c1nc2ccccc2n1CC(=O)c1ccc(N)cc1 [Example 58]	2 (score 2 relating to strong activity comprising more than 70% of the cells)	2 (score 2 relating to strong activity comprising more than 70% of the cells)	2 (score 2 relating to strong activity comprising more than 70% of the cells)	2 (score 2 relating to strong activity comprising more than 70% of the cells)	2 (score 2 relating to strong activity comprising more than 70% of the cells)	2 (score 2 relating to strong activity comprising more than 70% of the cells)	2 (score 2 relating to strong activity comprising more than 70% of the cells)	2 (score 2 relating to strong activity comprising more than 70% of the cells)	2 (score 2 relating to strong activity comprising more than 70% of the cells)	2 (score 2 relating to strong activity comprising more than 70% of the cells)	2 (score 2 relating to strong activity comprising more than 70% of the cells)	2 (score 2 relating to strong activity comprising more than 70% of the cells)	1 (1 relating to weak activity comprising less than 70% of the cells)	2 (score 2 relating to strong activity comprising more than 70% of the cells)	2 (score 2 relating to strong activity comprising more than 70% of the cells)	0	0	0	< 10	PI staining for cell cycle distribution, G2M (Jurkat [1]; [6]): 0; PI staining for cell cycle distribution, subG1 (Jurkat [1]; [7]): 0; IC50 (MRC5): < 10 nM; IC50 (HT1080): < 10 nM; IC50 (Jurkat [2]): < 10 nM; PI staining for cell cycle distribution, G2M (HeLa [3]; [6]): 2; PI staining for cell cycle distribution, subG1 (HeLa [3]; [7]): 0; IC50 (HeLa [5]): 10 to 100 nM
Nc1nonc1-c1nc2ccccc2n1CC(=O)c1ccc(Cl)c([N+](=O)[O-])c1 [Example 66, 4-[1-(4-Chloro-3-nitrophenacyl)-1H-benzimidazol-2-yl]-furazan-3-ylamine]	0	0	2 (score 2 relating to strong activity comprising more than 70% of the cells)	0	0	2 (score 2 relating to strong activity comprising more than 70% of the cells)	0	0	2 (score 2 relating to strong activity comprising more than 70% of the cells)	0	1 (1 relating to weak activity comprising less than 70% of the cells)	2 (score 2 relating to strong activity comprising more than 70% of the cells)	0	0	1 (1 relating to weak activity comprising less than 70% of the cells)	0	0	0	100 to 1000	IC50 (MRC5; Homo sapiens): 100 to 1000 nM; IC50 (HT1080; Homo sapiens, HT-1080): 100 to 1000 nM; IC50 (Jurkat [2]; Homo sapiens): 10 to 100 nM; IC50 (HeLa [5]; Homo sapiens): 100 to 1000 nM; melting point: 198 to 200 °C

Reference: patent publication USRE42890E1, “Furazanobenzimidazoles” (Basilea Pharmaceutica AG, priority 2003, dated 2011)
